Measurements taken from patent US12063914B2, “DNA sequence that increases odorant receptor representation in the olfactory system” (Research Foundation of the City University of New York, priority 2015, dated 2024).
Values belong to the molecule of their own block, whether it stands above or below them.

How the values were obtained:
human OR1A1 receptor = target: T1, human OR1A1 receptor (Homo sapiens, UniProt Q9P1Q5); assay: Two-bottle behavioral avoidance task with (−)-Carvone in 5•OR1A1Cβ mice; type: in vivo, mouse
T1 construct: expressed in transfected cells; host or cells: olfactory sensory neurons of living 5•OR1A1Cβ hemizygous transgenic mice
T1 sequence (Q9P1Q5 1-309): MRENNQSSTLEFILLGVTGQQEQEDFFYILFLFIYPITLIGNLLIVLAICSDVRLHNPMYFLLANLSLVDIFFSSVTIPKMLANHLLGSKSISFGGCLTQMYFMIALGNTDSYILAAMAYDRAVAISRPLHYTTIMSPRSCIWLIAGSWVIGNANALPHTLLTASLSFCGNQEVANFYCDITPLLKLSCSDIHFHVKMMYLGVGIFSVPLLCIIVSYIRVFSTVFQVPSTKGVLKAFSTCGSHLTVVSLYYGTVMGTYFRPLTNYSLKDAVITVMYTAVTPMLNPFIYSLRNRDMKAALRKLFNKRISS
Excerpt: To further evaluate the versatility of this platform, the probability of choice of expression of a human OR was increased by cloning OR1A1 into the 5×21 M71 transgenic backbone. […] Again omp levels were not changed. Clearly, the representation of some ORs must be decreased to explain this equilibrium. In the 4•M71Cα homo animals, a mere 2-log increase in M71 RNA levels leads to a detectable 0.3-log change in threshold. Therefore, without wishing to be bound to any particular theory, it is believed that further increases in the neuronal representation of specific ORs may decrease detection thresholds even more. However, a delicate balance must exist between cell number and sensitivity. This hypothesis was tested using the established two-bottle behavioral avoidance task with the 5•OR1A1Cβ mice (FIG. 3B). Conditioning of 5•OR1A1Cβ hemi animals (n=12) was performed and their WT littermates (n=7) to water containing a 10-4 dilution of (−)-Carvone, a known OR1A1 ligand. For four consecutive days, animals were given the choice between plain water and water with decreasing (10-4, 10-6, 10-7 and 10-8) dilutions of (−) Carvone (FIG. 3C). Both groups (WT and Hemi) show clear aversion towards a 10^−4 dilution of (−)-Carvone (AVG PI WT=6.17% and AVG PI hemi=10.26%), reflecting successful conditioning. Both WT (AVG PI=55.52%) and Hemi (AVG PI=47.88%) cannot detect a 10^−8 dilution of (−)-Carvone. At 10^−6 and 10^−7 however, there is a clear difference in detection between WT and Hemi (10^−6: AVG PI WT=27.65% vs. AVG PI Hemi=11.41, Student's T-test p<0.01 and 10^−7: AVG PI WT=53.88% vs. AVG PI Hemi=30.24, Student's T-test p<0.05). […] These findings indicate that expressing OR1A1 in about 40% of the OSNs translates into a 2-log difference in (−)-Carvone detection thresholds.
Olfactory behavior test: A two-bottle discrimination test was performed as previously described. Since the mice are tested for the ability to detect a single odor in drinking water at increasingly lower concentrations, this discrimination assay is also considered a detection threshold test. Mice 8 weeks old were individually housed and given food ad libitum but restricted access to saccharin-phthalic acid solution (2.1×10^−2 M sodium saccharin and 10^−3M phthalic acid pH 6.5) for 1 h twice a day for two days before the assay begins. This ensures mice would commence drinking the solution during the conditioning. On day 3 (conditioning day) mice are exposed to sodium saccharine phthalic acid (SSPA) solution with 1 dilution of odorized water for 10 minutes. Immediately after, they are injected with lithium chloride intraperitoneally (15 μl/g body weight of a 0.6 M solution) to induce the aversive malaise and lethargy state. After two hours mice are returned to their home cage and given access to two bottles of drinking water; they are given the choice between SSPA solution containing a 10^−4 dilution of the odor versus the non-odorized SSPA solution. During the following 3 days, every 24 hours, the location of the bottles is reversed and the concentration of the odorized solution is decreased to 10^−6, 10^−7 and 0.5×10^−6, respectively. Every day both bottles are weighed to determine the amount of liquid consumed. A preference index was calculated as the amount of odorized solution consumed divided by the total amount of water solution consumed for each mouse for every 24 hour test period at each odor concentration. Student's t test was performed to test statistical significance, assuming two-tailed distribution and two-sample unequal variance. Values are mean±SEM and are plotted on a LOG scale.

M71 = target: T2, M71 (Mus musculus, UniProt Q60893); conditions: previous ex vivo data; liquid phase; cited from earlier work
T2 construct: from ex vivo analysis of genetically defined M71 OSNs in gene-targeted mice; host or cells: dendritic knobs of M71-expressing olfactory sensory neurons from gene-targeted mice
T2 sequence (Q60893 1-309): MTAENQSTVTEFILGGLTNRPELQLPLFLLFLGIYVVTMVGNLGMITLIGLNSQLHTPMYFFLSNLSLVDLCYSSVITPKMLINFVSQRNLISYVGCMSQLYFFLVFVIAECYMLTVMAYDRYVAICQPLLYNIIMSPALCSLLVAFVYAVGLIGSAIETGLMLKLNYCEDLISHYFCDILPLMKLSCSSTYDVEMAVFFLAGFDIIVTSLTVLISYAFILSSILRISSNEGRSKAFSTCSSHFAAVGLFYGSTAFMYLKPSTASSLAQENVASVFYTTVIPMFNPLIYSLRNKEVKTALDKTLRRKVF

[1] = at 25° C.; cited from earlier work
M71 OR = target: T3, M71 OR (Mus musculus, UniProt Q60893); assay: In vivo synaptophluorin (SpH) imaging of odor-evoked glomerular activity in 4•M71Cα mice; conditions: for glomerular activity (in vivo SpH imaging): 4•M71Cα animals, vapor phase, odor dilutions 0% to 15%; for average highest (dF/F)max: hemizygous 4•M71Cα animals, ACP at 1.77 uM, 24dMACP at 0.66 uM; for average highest (dF/F)max / highest efficacy [(dF/F)max]: 4MACP at 0.69 uM; for efficacy [average (dF/F)max]: delivered at the same concentration, ˜0.70 uM; for highest efficacy [(dF/F)max]: homozygous 4•M71Cα animals, ACP at 2.66 uM, 24dMACP at 0.46 uM; for efficacy [(dF/F)max]: 0.71 uM; for response [(dF/F)max] at highest concentration delivered: 2.66 uM
T3 construct: the increase of OSNs expressing the M71 OR results in the coalescence of labeled axons; expressed in transfected cells; host or cells: olfactory sensory neurons of living transgenic mice (4•M71Cα, 5•M71Cα), made by pronuclear injection of the M71 minigene
T3 sequence (Q60893 1-309): T2 sequence (Q60893 1-309)
Excerpt: Because the M71 OR is dorsally expressed in the olfactory bulb, any cloned OR using the M71 transgenic backbone will coalesce its axons onto dorsally located glomeruli, which makes them accessible for optical imaging. Optical imaging was therefore used to functionally characterize transgenic M71 projections in the OB. To examine their functional properties odor-evoked activity was imaged from the OBs of mice expressing the genetically encoded activity reporter SpH in all mature OSNs. Simultaneously recordings were obtained from mice that are either hemizygous or homozygous for 4•M71Cα (gene-targeted M71-GFP is out crossed) and heterozygous for SpH and identify red M71 glomeruli. Seven different M71-selective ligands were used from ex vivo analysis of genetically defined M71 OSNs in gene-targeted mice: three of these ligands produced responses by SpH imaging: Acetophenone (ACP), 4-methyl acetophenone (4MACP) and 2,4-dimethyl acetophenone (24dMACP) when delivered at different odor dilutions varying between 0% and 15%. The maximum change in fluorescence [(dF/F)max] per odor concentration was calculated for each compound over a 14 s trial period having a pre-odor (3 s), odor (4 s) and post-odor (4 s) acquisition. dF/F values for all glomeruli were calculated with a standardized 50 μm window, which is fully contained in all imaged glomeruli of both hemi and homo 4•M71Cα animals. (FIG. 2A, FIG. 2B and FIG. 2C: Each data point represents the average (dF/F). of 4-16 glomeruli imaged). […] All imaged mice are heterozygous for omp-SpH.
Olfactometry: Odors (purchased form Sigma Aldrich) were delivered using a custom built olfactometer controlled by an Arduino board with custom shields operating Teflon solenoids (Neptune Research) and connected to two Mass Flow Controllers (Alicat Scientific, Inc) to dilute the clean air (N2, max flow is 2 Lpm) and to dilute the odorized air (max flow is 300 SCCM). Nitrogen (N2) was used as the vapor carrier to avoid oxidation. Odor concentrations are expressed a % dilutions of saturated vapor and as molar saturated vapor concentration (μM s.v.), calculated using published vapor pressures at 25° Celsius (US EPA, Estimation Programs Interface Suite, v 4.0. Flow diluted odors were delivered at 2 Lpm mixed prior to the delivery site with air odorized with varying dilutions of odorant taken from the saturated headspace of pre-cleaned amber vials with white polypropylene closures and septum (J. G. Finneran) containing 99% pure odorants. To avoid contamination of the olfactometer, odorized air was never passed through the Teflon valves. Instead, odors were mixed with N2 in T-shaped mixing chambers (Neptune Research) and delivered to the animal's nose using an arduino controlled vacuum system. […] Output of the olfactometer was calibrated using the tracer odor Pinene and a photoionization detector (PID; Aurora Scientific).
In vivo SpH Imaging: Mice were anesthetized using Ketamine (100 mg/kg)/Xylazin (5 mg/kg) and maintained with Isoflurane (2.5% in 02) and immobilized using a stereotactic head holding device (Narishige, Inc.). Optical signals for SpH and mCherry were recorded using an ANDOR Neo 5.5 sCMOS camera connected to a NIKON AZ100 epifluorescence microscope (NIS Elements) with a 4× objective (numerical aperture 0.4). Excitation wavelengths of 475 nm for SpH and 575 nm for mCherry and emission of 520 nm for SpH and 635 nm for mCherry were used to obtain images of the dorsolateral bulb through thinned skull overlaying the bulb of a freely breathing animal. Each imaging trial consisted of a pre-odor (3 s), odor (4 s) and post-odor (4 s) acquisition, with a total acquisition time per trial of 14 s (including 3 s of valve switch delay). Using serial code, the arduino controlling the olfactometer was integrated in the NIS Elements software, so that the entire image acquisition sequence and flow-diluted odor delivery is controlled by the microscope software. […]

difference in detection thresholds (human OR1A1 receptor; 5•OR1A1Cβ hemi vs WT): 2 log | AVG PI (human OR1A1 receptor; 5•OR1A1Cβ hemi, 10^−4 dilution): 10.26% | AVG PI (human OR1A1 receptor; 5•OR1A1Cβ hemi, 10^−6 dilution): 11.41 | AVG PI (human OR1A1 receptor; 5•OR1A1Cβ hemi, 10^−7 dilution): 30.24 | AVG PI (human OR1A1 receptor; 5•OR1A1Cβ hemi, 10^−8 dilution): 47.88% | AVG PI (human OR1A1 receptor; WT littermates, 10^−4 dilution): 6.17% | AVG PI (human OR1A1 receptor; WT littermates, 10^−6 dilution): 27.65% | AVG PI (human OR1A1 receptor; WT littermates, 10^−7 dilution): 53.88% | AVG PI (human OR1A1 receptor; WT littermates, 10^−8 dilution): 55.52%
Compound: C=C(C)C1CC=C(C)C(=O)C1 (single isomer, unassigned; (-)) [(−)-Carvone]

Compound: NCC(=O)c1ccccc1 [2 amino acetophenone]
elicit a M71 response ex vivo (M71): did

Compound: COc1ccc(C(C)=O)cc1 [4-metoxyacetophenone]
saturated vapor pressure (Ps) [1]: 0.0133 mmHg | glomerular activity (in vivo SpH imaging) (M71 OR): does not show glomerular activation | elicit a M71 response ex vivo (M71): did | ex vivo responder grade (M71): high responder

glomerular activity (in vivo SpH imaging) (M71 OR): observed | average highest (dF/F)max (M71 OR): 4.48% | efficacy [average (dF/F)max] (M71 OR; hemizygous animals): 4.48% | highest efficacy [(dF/F)max] (M71 OR): 3.82% | average efficacy (of all concentrations and odors) (M71 OR; homozygous animals): 3.83%
Compound: CC(=O)c1ccc(C)cc1 [4MACP, 4-methyl acetophenone]
saturated vapor pressure (Ps) [1]: 0.0849 mmHg | elicit a M71 response ex vivo (M71): did

Compound: CC(=O)c1ccccc1 [ACP, Acetophenone]
saturated vapor pressure (Ps) [1]: 0.3260 mmHg | glomerular activity (in vivo SpH imaging) (M71 OR): observed | average highest (dF/F)max (M71 OR): 3.49% | efficacy [(dF/F)max] (M71 OR; hemizygous animals): 0.73% | efficacy [average (dF/F)max] (M71 OR; hemizygous animals): 0.73% | response [(dF/F)max] at highest concentration delivered (M71 OR; heterozygous (hemizygous) animals): 3.46% | highest efficacy [(dF/F)max] (M71 OR): 4.57% | efficacy [(dF/F)max] (M71 OR; homozygous animals): 3.00% | response [(dF/F)max] at highest concentration delivered (M71 OR; homozygous animals): 4.57% | elicit a M71 response ex vivo (M71): did

Compound: O=Cc1ccccc1 [benzaldehyde]
elicit a M71 response ex vivo (M71): did | ex vivo responder grade (M71): low responder

Compound: CCc1occc(=O)c1O [ethylmalthol]
elicit a M71 response ex vivo (M71): did

Compound: CC(C)[C@@H]1CC[C@@H](C)CC1=O [menthone]
elicit a M71 response ex vivo (M71): did not

Compound: COC(=O)c1ccccc1 [methylbenzoate]
elicit a M71 response ex vivo (M71): did not
